ChEMBL document CHEMBL3044964, “Synthesis of novel imidazo[2,1-b][1,3,4]thiadiazoles appended to sydnone as anticancer agents” (Med Chem Res, 2013)
Values after ≈ are worked out from the molar mass of the structure shown. Active and inactive are the calls of the source. The rule behind the calls is not given here.

Key:
Escherichia coli [1] = experiment: Toxicity in wild type Escherichia coli AB1157 assessed as growth inhibition at 500 ug after 24 hr by agar well diffusion method; format: organism-based; conditions: in vivo
Escherichia coli [2] = experiment: Toxicity in wild type Escherichia coli AB1157 assessed as growth inhibition at 1000 ug after 24 hr by agar well diffusion method; format: organism-based; conditions: in vivo
Escherichia coli [3] = experiment: Toxicity in wild type Escherichia coli AB1157 assessed as growth inhibition after 24 hr by agar well diffusion method; format: organism-based; conditions: in vivo
HT-29 = experiment: Cytotoxicity against Homo sapiens (human) HT-29 cells by SRB assay; format: functional
Escherichia coli [4] = experiment: Toxicity in wild type Escherichia coli AB1157 assessed as growth inhibition at 250 ug after 24 hr by agar well diffusion method; format: organism-based; conditions: in vivo
Escherichia coli [5] = experiment: Toxicity in wild type Escherichia coli AB1157 assessed as growth inhibition at 2000 ug after 24 hr by agar well diffusion method; format: organism-based; conditions: in vivo
Escherichia coli [6] = experiment: Toxicity in wild type Escherichia coli AB1157 assessed as growth inhibition at 125 ug after 24 hr by agar well diffusion method; format: organism-based; conditions: in vivo
Escherichia coli [7] = experiment: Induction of Escherichia coli DNA cleavage at 25 mg after 2 hr by agarose gel electrophoresis

Molecule | diameter of the inhibition zone (DIZ) (Escherichia coli [1]) [cm] | diameter of the inhibition zone (DIZ) (Escherichia coli [2]) [cm] | MIC (Escherichia coli [3]) [mg] | GI50 (HT-29) [µg/mL] | LC50 (HT-29) [µg/mL] | TGI (HT-29) [µg/mL] | diameter of the inhibition zone (DIZ) (Escherichia coli [4]) [cm] | diameter of the inhibition zone (DIZ) (Escherichia coli [5]) [cm] | growth inhibition (GI) (Escherichia coli [6]) | Activity (Escherichia coli [7])
Cc1ccc(-n2n[o+]c([O-])c2-c2nn3cc(-c4cc5ccccc5oc4=O)nc3s2)cc1 | 0 | 0 | > 2 | 4.23 (≈ 9.54 µM) | > 80 | < 30 | 0 | 0 | Non-toxic | –
O=c1oc2ccc(Cl)cc2cc1-c1cn2nc(-c3c([O-])[o+]nn3-c3ccc(Cl)cc3)sc2n1 | 0 | 0 | > 2 | 8 (≈ 16.1 µM) | > 80 | > 40 | 0 | 0 | Non-toxic | Active
O=c1oc2ccccc2cc1-c1cn2nc(-c3c([O-])[o+]nn3-c3ccccc3)sc2n1 | 0 | 0 | > 2 | 6.3 (≈ 14.7 µM) | > 70 | > 30 | 0 | 0 | Non-toxic | –
Cc1ccc(-n2n[o+]c([O-])c2-c2nn3cc(-c4cc5cc(Cl)ccc5oc4=O)nc3s2)cc1 | 0 | 0 | > 2 | 7.9 (≈ 16.5 µM) | > 80 | > 40 | 0 | 0 | Non-toxic | Active
COc1ccc(-n2n[o+]c([O-])c2-c2nn3cc(-c4cc5cc(Cl)ccc5oc4=O)nc3s2)cc1 | 0 | 0.5 | 1 | 3.68 (≈ 7.45 µM) | > 70 | < 30 | 0 | 0.8 | Non-toxic | –
O=c1oc2ccc(Br)cc2cc1-c1cn2nc(-c3c([O-])[o+]nn3-c3ccccc3)sc2n1 | 0 | 0 | > 2 | 5.6 (≈ 11 µM) | > 70 | > 30 | 0 | 0 | Non-toxic | –
O=c1oc2ccc(Cl)cc2cc1-c1cn2nc(-c3c([O-])[o+]nn3-c3ccccc3)sc2n1 | 0 | 0 | > 2 | 7.7 (≈ 16.6 µM) | > 80 | > 40 | 0 | 0 | Non-toxic | –
COc1ccc(-n2n[o+]c([O-])c2-c2nn3cc(-c4cc5cc(Br)ccc5oc4=O)nc3s2)cc1 | 0 | 0.5 | 1 | 3.04 (≈ 5.65 µM) | > 80 | < 30 | 0 | 0.8 | Non-toxic | –
STANNOUS CHLORIDE | 0.5 | 0.8 | 0.25 | – | – | – | 0.3 | 1.5 | Non-toxic | –
O=c1oc2ccc(Br)cc2cc1-c1cn2nc(-c3c([O-])[o+]nn3-c3ccc(Cl)cc3)sc2n1 | 0 | 0 | > 2 | 5.25 (≈ 9.67 µM) | > 70 | > 40 | 0 | 0 | Non-toxic | –
COc1ccc(-n2n[o+]c([O-])c2-c2nn3cc(-c4cc5ccccc5oc4=O)nc3s2)cc1 | 0 | 0.5 | 1 | 3.14 (≈ 6.83 µM) | > 70 | < 30 | 0 | 0.8 | Non-toxic | –
Cc1ccc(-n2n[o+]c([O-])c2-c2nn3cc(-c4cc5cc(Br)ccc5oc4=O)nc3s2)cc1 | 0 | 0 | > 2 | 6.1 (≈ 11.7 µM) | > 70 | > 30 | 0 | 0 | Non-toxic | –
O=c1oc2ccccc2cc1-c1cn2nc(-c3c([O-])[o+]nn3-c3ccc(Cl)cc3)sc2n1 | 0 | 0 | > 2 | 4 (≈ 8.62 µM) | > 80 | < 30 | 0 | 0 | Non-toxic | Active
